Experimental findings from article PMC12340973, “Discovery of First-in-Class Inhibitors Targeting a Pathogen-Associated Aminoglycoside-Resistance 16S rRNA Methyltransferase” (ACS Infectious Diseases, 2025) are described below.

What all share (type): biochemical
Test [1] has as its target T1, NpmA (16S rRNA (m1A1408) methyltransferase) (Escherichia coli, UniProt A8C927).
T1 construct: recombinant NpmA
Briefly: in vitro […] subunit [3H]-SAM methylation assay at fixed […]. The settings on record: read-out: % activity at 1 mM.

The target of test [2] is T1, NpmA (16S rRNA (m1A1408) methyltransferase). In words: in vitro […] subunit [3H]-SAM methylation filter-binding assay, dose-response; resynthesized and retested.
The target is the same in test [3]. Briefly: in vitro […] subunit [3H]-SAM methylation filter-binding assay, dose-response.

T1 sequence (A8C927 whole entry): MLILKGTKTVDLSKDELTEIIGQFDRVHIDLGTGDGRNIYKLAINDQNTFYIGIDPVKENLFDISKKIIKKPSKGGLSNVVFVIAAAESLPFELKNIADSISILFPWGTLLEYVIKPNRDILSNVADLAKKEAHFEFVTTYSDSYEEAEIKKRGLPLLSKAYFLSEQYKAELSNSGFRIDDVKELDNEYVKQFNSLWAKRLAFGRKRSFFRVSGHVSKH

Regarding `CC(=O)c1ccc(NC(=O)/C(=C/c2cccc([N+](=O)[O-])c2)NC(=O)c2ccc(C)cc2)cc1` [compound 3], the activity at 1000 µM in test [1] is under 25%. With `Cc1ccc(-c2cc(C(=O)N3CCC(c4cc(O)ncn4)CC3)[nH]n2)cc1` [compound 10], the activity at 1000 µM in test [1] is under 25%.

In the case of `COc1cc(C2C(C(=O)OCCc3ccccc3)=C(C)NC3=C2C(=O)CC(c2ccccc2)C3)cc(Br)c1O` (stereo not drawn) [compound 20], the activity at 1000 µM in test [1] was under 25%. For the compound `CC(=O)c1ccc(NC(=O)/C(=C/c2cccc([N+](=O)[O-])c2)NC(=O)c2ccccc2Cl)cc1` [compound 23, (Z)-N-(3-((4-Acetylphenyl)-amino)-1-(3-nitrophenyl)-3-oxoprop-1-en-2-yl)-2-chlorobenz-amide], the IC50 – broadly, the point on the concentration scale where inhibition reaches its midpoint – in test [2] was determined as 76 µM. `Cc1ccc(NC(=O)C(=Cc2cccc([N+](=O)[O-])c2)NC(=O)c2ccccc2I)cc1` [compound 45] had an IC50 in test [3] of 99 µM. Same read-out and setting: for `Cc1ccc(NC(=O)C(=Cc2cccc([N+](=O)[O-])c2)NC(=O)c2ccc(Cl)cc2Cl)cc1` [compound 47] the value was 68 µM.
